Measured values as given in patent US11312712B2, “Azabenzimidazoles and their use as AMPA receptor modulators” (Janssen Pharmaceutica NV, priority 2015, dated 2022).

Target: GluA1o-γ8 (GRIA1o-CACNG8 fusion construct) (Homo sapiens (Human), UniProt P42261+Q8WXS5)
Test: Calcium flux assay (FLIPR), inhibition of TARP γ8 dependent AMPA receptor activity
Type: cell-based
Settings: GluA1o-γ8 (GRIA1o-CACNG8 fusion) in HEK293 cells, calcium flux after 15 μM glutamate
How it was run: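 HEK293 cells stably expressing a 1:1 GRIA1o–CACNG8 fusion were loaded with Calcium-5/6 dye plus compound in pH 7.4 HEPES-buffered saline. FLIPR calcium flux after 15 μM glutamate was normalized to untreated and 10 μM CP465022 controls, and a four-parameter logistic fit gave pIC50.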

Chain of GluA1o-γ8 (GRIA1o-CACNG8 fusion construct) (P42261 other isoform, or with tags, fused parts or gaps): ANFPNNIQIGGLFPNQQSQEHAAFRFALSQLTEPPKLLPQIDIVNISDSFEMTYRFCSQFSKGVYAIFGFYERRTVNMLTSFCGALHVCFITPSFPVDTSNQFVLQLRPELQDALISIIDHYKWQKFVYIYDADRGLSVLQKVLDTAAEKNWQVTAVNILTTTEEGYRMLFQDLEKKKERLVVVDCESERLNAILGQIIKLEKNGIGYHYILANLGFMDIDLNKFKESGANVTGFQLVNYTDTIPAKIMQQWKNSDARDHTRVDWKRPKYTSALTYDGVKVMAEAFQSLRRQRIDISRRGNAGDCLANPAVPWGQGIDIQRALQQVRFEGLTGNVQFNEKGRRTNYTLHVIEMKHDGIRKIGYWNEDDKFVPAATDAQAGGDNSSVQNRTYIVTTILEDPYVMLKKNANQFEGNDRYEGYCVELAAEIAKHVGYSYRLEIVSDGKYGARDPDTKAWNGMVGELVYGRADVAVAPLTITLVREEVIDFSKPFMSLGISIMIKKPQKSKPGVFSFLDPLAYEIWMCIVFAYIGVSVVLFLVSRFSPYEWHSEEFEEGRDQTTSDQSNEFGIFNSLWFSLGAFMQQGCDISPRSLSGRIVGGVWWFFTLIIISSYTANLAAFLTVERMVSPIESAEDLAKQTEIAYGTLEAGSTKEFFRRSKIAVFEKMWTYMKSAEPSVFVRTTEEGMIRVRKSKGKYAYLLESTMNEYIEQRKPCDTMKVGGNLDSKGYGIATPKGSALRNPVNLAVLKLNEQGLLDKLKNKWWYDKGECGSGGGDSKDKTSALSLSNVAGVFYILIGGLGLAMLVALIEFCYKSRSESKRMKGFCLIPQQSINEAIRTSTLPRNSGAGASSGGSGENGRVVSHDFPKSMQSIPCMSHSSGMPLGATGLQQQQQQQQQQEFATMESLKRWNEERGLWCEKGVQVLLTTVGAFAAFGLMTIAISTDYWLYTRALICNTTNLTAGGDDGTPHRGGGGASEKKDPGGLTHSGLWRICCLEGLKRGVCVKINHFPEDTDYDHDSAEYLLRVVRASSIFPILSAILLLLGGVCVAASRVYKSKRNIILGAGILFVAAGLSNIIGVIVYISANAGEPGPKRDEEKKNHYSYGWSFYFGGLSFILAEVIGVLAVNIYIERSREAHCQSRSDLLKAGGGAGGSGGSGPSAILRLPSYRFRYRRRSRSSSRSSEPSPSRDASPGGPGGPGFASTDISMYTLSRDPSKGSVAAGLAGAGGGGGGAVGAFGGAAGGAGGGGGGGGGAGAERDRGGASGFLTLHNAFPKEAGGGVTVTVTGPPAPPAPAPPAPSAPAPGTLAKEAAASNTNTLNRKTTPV

Row | IC50 [nM] | SMILES
1 | 7.94 | FC(F)(F)c1ccc2cc(-c3ccccc3)n(-c3ccc4[nH]ccc4c3)c2n1 [Example 388, 1-(1H-Indol-5-yl)-2-phenyl-6-(trifluoromethyl)pyrrolo[2,3-b]pyridine]
2 | 0.0631 | O=C1Cc2cc(-n3c(C4CC4)c(Br)c4ccc(C(F)(F)F)nc43)ccc2N1 [Example 389, 5-[3-Bromo-2-cyclopropyl-6-(trifluoromethyl)pyrrolo[2,3-b]pyridin-1-yl]indolin-2-one]
3 | 1.26 | Cc1ccc2cc(-c3ccccc3)n(-c3cnc4[nH]ccc4c3)c2n1 [Example 390, 6-Methyl-2-phenyl-1-(1H-pyrrolo[2,3-b]pyridin-5-yl)pyrrolo[2,3-b]pyridine]
4 | 0.631 | CC(C)c1cc2ccc(C(F)(F)F)nc2n1-c1cnc2[nH]ccc2c1 [Example 391, 2-Isopropyl-1-(1H-pyrrolo[2,3-b]pyridin-5-yl)-6-(trifluoromethyl)pyrrolo[2,3-b]pyridine]
5 | 3.16 | Cc1ccc2c(Br)c(-c3ccccc3)n(-c3cnc4c(c3)CC(=O)N4)c2n1 [Example 393, 5-(3-Bromo-6-methyl-2-phenyl-pyrrolo[2,3-b]pyridin-1-yl)-1,3-dihydropyrrolo[2,3-b]pyridin-2-one]
6 | 31.6 | CC(C)c1c(Br)c2ccc(C(F)(F)F)nc2n1-c1cnc2c(c1)CC(=O)N2 [Example 394, 5-[3-Bromo-2-isopropyl-6-(trifluoromethyl)pyrrolo[2,3-b]pyridin-1-yl]-1,3-dihydropyrrolo[2,3-b]pyridin-2-one]
7 | 25.1 | Cc1c(Br)c2ccc(C(F)(F)F)nc2n1-c1cnc2c(c1)CC(=O)N2 [Example 395, 5-[3-Bromo-2-methyl-6-(trifluoromethyl)pyrrolo[2,3-b]pyridin-1-yl]-1,3-dihydropyrrolo[2,3-b]pyridin-2-one]
8 | 0.0126 | CC(C)c1cc2ccc(C(F)(F)F)nc2n1-c1ccc2c(c1)CC(=O)N2 [Example 396, 5-[2-Isopropyl-6-(trifluoromethyl)pyrrolo[2,3-b]pyridin-1-yl]indolin-2-one]
9 | 0.0398 | O=C1Cc2cc(-n3c(-c4ccccc4)cc4ccc(C(F)(F)F)nc43)ccc2N1 [Example 397, 5-[2-Phenyl-6-(trifluoromethyl)pyrrolo[2,3-b]pyridin-1-yl]indolin-2-one]
10 | 0.0631 | O=C1Cc2cc(-n3c(-c4ccc(F)cc4)cc4ccc(C(F)(F)F)nc43)ccc2N1 [Example 398, 5-[2-(4-Fluorophenyl)-6-(trifluoromethyl)pyrrolo[2,3-b]pyridin-1-yl]indolin-2-one]
11 | 0.0251 | O=C1Cc2cc(-n3c(C4CC4)cc4ccc(C(F)(F)F)nc43)ccc2N1 [Example 399, 5-[2-Cyclopropyl-6-(trifluoromethyl)pyrrolo[2,3-b]pyridin-1-yl]indolin-2-one]
12 | 0.251 | Cc1ccc2cc(-c3ccccc3)n(-c3cnc4c(c3)CC(=O)N4)c2n1 [Example 400, 5-(6-Methyl-2-phenyl-pyrrolo[2,3-b]pyridin-1-yl)-1,3-dihydropyrrolo[2,3-b]pyridin-2-one]
13 | 0.0316 | CC(C)c1cc2ccc(C(F)(F)F)nc2n1-c1cnc2c(c1)CC(=O)N2 [Example 401, 5-[2-Isopropyl-6-(trifluoromethyl)pyrrolo[2,3-b]pyridin-1-yl]-1,3-dihydropyrrolo[2,3-b]pyridin-2-one]
14 | 10 | Cc1cc2ccc(C(F)(F)F)nc2n1-c1cnc2c(c1)CC(=O)N2 [Example 402, 5-[2-Methyl-6-(trifluoromethyl)pyrrolo[2,3-b]pyridin-1-yl]-1,3-dihydropyrrolo[2,3-b]pyridin-2-one]
15 | 1.26 | CCc1cc2cccnc2n1-c1cc(C)c2c(c1)CC(=O)N2 [Example 403, 5-(2-Ethylpyrrolo[2,3-b]pyridin-1-yl)-7-methyl-indolin-2-one]
16 | 1.26 | Cc1ccc2nc(C(C)(F)F)n(-c3cc(Cl)c4[nH]ncc4c3)c2n1 [Example 410, 3-(7-Chloro-1H-indazol-5-yl)-2-(1,1-difluoroethyl)-5-methyl-3H-imidazo[4,5-b]pyridine]
17 | 0.158 | FC(F)(F)c1ccc2nc(CC3CC3)n(-c3cc(Cl)c4[nH]ncc4c3)c2n1 [Example 411, 3-(7-Chloro-1H-indazol-5-yl)-2-(cyclopropylmethyl)-5-(trifluoromethyl)-3H-imidazo[4,5-b]pyridine]
18 | 0.126 | CCCc1nc2ccc(C(F)(F)F)nc2n1-c1cc(Cl)c2[nH]ncc2c1 [Example 412, 3-(7-Chloro-1H-indazol-5-yl)-2-propyl-5-(trifluoromethyl)-3H-imidazo[4,5-b]pyridine]
19 | 0.398 | COCc1nc2ccc(C(F)(F)F)nc2n1-c1cc(Cl)c2[nH]ncc2c1 [Example 413, 3-(7-Chloro-1H-indazol-5-yl)-2-(methoxymethyl)-5-(trifluoromethyl)-3H-imidazo[4,5-b]pyridine]
20 | 0.126 | CC(C)Cc1nc2ccc(C(F)(F)F)nc2n1-c1cc(Cl)c2[nH]ncc2c1 [Example 414, 3-(7-Chloro-1H-indazol-5-yl)-2-isobutyl-5-(trifluoromethyl)-3H-imidazo[4,5-b]pyridine]
21 | 0.0501 | COc1ccc2nc(C(F)(F)F)n(-c3cc(Cl)c4[nH]ncc4c3)c2n1 [Example 415, 3-(7-Chloro-1H-indazol-5-yl)-5-methoxy-2-(trifluoromethyl)-3H-imidazo[4,5-b]pyridine]
22 | 0.501 | FC(F)(F)Cc1nc2ccc(C(F)(F)F)nc2n1-c1cc(Cl)c2[nH]ncc2c1 [Example 416, 3-(7-Chloro-1H-indazol-5-yl)-2-(2,2,2-trifluoroethyl)-5-(trifluoromethyl)-3H-imidazo[4,5-b]pyridine]
23 | 3.16 | CCC(F)(F)c1nc2ccc(C(F)(F)F)nc2n1-c1cc(C)c2[nH]ncc2c1 [Example 417, 2-(1,1-Difluoropropyl)-3-(7-methyl-1H-indazol-5-yl)-5-(trifluoromethyl)-3H-imidazo[4,5-b]pyridine]
24 | 3.98 | Cc1cc(-n2c(CCC(F)(F)F)nc3ccc(C(F)(F)F)nc32)cc2cn[nH]c12 [Example 418, 3-(7-Methyl-1H-indazol-5-yl)-5-(trifluoromethyl)-2-(3,3,3-trifluoropropyl)-3H-imidazo[4,5-b]pyridine]
25 | 0.631 | FC(F)(F)c1cnc2c(c1)nc(C(F)(F)F)n2-c1cc(Cl)c2[nH]ncc2c1 [Example 419, 3-(7-Chloro-1H-indazol-5-yl)-2,6-bis(trifluoromethyl)-3H-imidazo[4,5-b]pyridine]
26 | 0.126 | Cc1cc(-n2c(C(C)C)cc3cc(F)cnc32)cc2c1NC(=O)C2 [Example 420, 5-(5-Fluoro-2-isopropyl-1H-pyrrolo[2,3-b]pyridin-1-yl)-7-methylindolin-2-one]
27 | 0.0794 | Cc1cc(-n2c(C)cc3ccc(C(F)F)nc32)cc2c1NC(=O)C2 [Example 421, 5-(6-(Difluoromethyl)-2-methyl-1H-pyrrolo[2,3-b]pyridin-1-yl)-7-methylindolin-2-one]
28 | 0.316 | Cc1cc(-n2c(C=O)cc3ccc(C(F)(F)F)nc32)cc2c1NC(=O)C2 [Example 422, 1-(7-Methyl-2-oxoindolin-5-yl)-6-(trifluoromethyl)-1H-pyrrolo[2,3-b]pyridine-2-carbaldehyde]
